From publication PMC13006724 (Clinical Pharmacology in Drug Development, 2026)

Settings: human, in vivo, 400 mg
Procedure: Urine PK parameters included cumulative urinary excretion from time zero to time t (Ae0‐t), maximum rate of urinary excretion (Rmax), time of maximum rate of urinary excretion (TRmax), and renal clearance (Clr). PK analyses were performed using Phoenix WinNonlin version 8.0, which was validated by Syneos Health.

AUC0-inf: 28327.2 (4616.5) h*ng/mL
SMILES: COc1c(N2C[C@@H]3CCCN[C@@H]3C2)c(F)cc2c(=O)c(C(=O)O)cn(C3CC3)c12 [Moxifloxacin]
